Laboratory results published in paper PMC8637440, “Structural Modifications Yield Novel Insights Into the Intriguing Pharmacodynamic Potential of Anti-inflammatory Nitro-Fatty Acids” (Frontiers in Pharmacology, 2021).
Read-outs that look alike come from different tables or passages of the source.

Biological target: T1, 5-LO (Homo sapiens, UniProt P09917)
T1 construct: endogenous in cells; host or cells: human PMNL from buffy coats
T1 sequence (P09917 1-674): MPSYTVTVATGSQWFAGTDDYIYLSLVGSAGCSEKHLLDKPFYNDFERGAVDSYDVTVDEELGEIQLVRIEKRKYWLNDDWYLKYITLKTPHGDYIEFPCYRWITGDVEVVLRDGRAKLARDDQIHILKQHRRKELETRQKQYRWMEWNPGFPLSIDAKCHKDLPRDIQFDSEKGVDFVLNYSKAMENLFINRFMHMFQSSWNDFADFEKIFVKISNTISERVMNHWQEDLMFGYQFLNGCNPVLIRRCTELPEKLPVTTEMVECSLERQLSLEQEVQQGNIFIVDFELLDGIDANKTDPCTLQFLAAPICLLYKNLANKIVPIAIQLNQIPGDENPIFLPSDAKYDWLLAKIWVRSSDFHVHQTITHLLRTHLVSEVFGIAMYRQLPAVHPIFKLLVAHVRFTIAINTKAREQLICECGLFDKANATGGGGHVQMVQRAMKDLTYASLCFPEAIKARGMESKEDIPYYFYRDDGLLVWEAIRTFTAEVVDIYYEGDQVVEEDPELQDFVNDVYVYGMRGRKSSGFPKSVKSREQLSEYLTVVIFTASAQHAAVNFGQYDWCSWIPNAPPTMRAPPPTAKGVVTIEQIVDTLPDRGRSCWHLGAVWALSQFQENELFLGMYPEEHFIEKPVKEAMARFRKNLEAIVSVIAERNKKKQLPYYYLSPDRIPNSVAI
Test: 5-LO product formation (LTB4, 5-HETE) in intact PMNL, A23187 in absence of AA
Format: cell-based
Experimental: Buffy coats from different donors of different blood types were commercially obtained from DRK Blutspendedienst Baden-Württemberg Institute Frankfurt. Donors have given their written consent. To avoid initial blood clotting only buffy coats from one donor or several donors with the same blood type were combined and diluted with 1× PBS mixed with 5% dextran solution and allowed to stand for 30 min at RT to separate the erythrocytes. Following separation, the supernatant was transferred very gently to new 50-ml tubes containing lymphocyte separation medium (LSM) and centrifuged for 10 min at 800 ×g at RT with the centrifuge brake turned off. Afterwards, the supernatant was decanted carefully to discard the platelets and monocytes. The PMNL were washed with 1× PBS before the residual erythrocytes were lysed in two cycles: the cell pellet was resuspended with 10 ml H2O and vortexed for 45 s, and lysis was stopped with 40 ml 1 × PBS. After 10-min centrifugation at 200 ×g at RT, the cycle was repeated once. The supernatant was aspirated, the cell pellet resuspended in 5 ml PBS/glucose and initially separated PMNL preparations with different blood types were finally pooled to gain a sufficient number of cells.
5-LO activity in intact cells was assayed by measuring LTB4 (leukotriene B4) and 5-HETE (5-hydroxyeicosatetraenoic acid) levels in the PMNL supernatants. […] Recombinant 5-LO enzyme activity was assessed by the determination of 5-HETE levels representing a direct product assay. In the cell-based LO activity assays, 5 × 10^6 cells per ml PBS/glucose were transferred to 5 ml glass tubes containing 1 mM CaCl2 and stored on ice. […] […] Recombinant 5-LO activity assays were carried out using 3 µg r5LO-wt enzyme. The enzyme was diluted in PBS/EDTA/ATP, transferred into 5-ml glass tubes, and stored on ice. […] The samples were then pre-heated at 37°C in a water bath and subsequently stimulated with 1 mM CaCl2 and 20 µM AA for 10 min at 37°C. The reaction was stopped by placing the glass tubes on ice. The supernatants were transferred to 1.5 ml reaction tubes and stored at −80°C before LC-MS (liquid chromatography and mass spectrometry) analysis of LTB4 and HETEs as described in 2.6 at the Institute of Pharmacology, Goethe University, University Hospital, Germany.
For experiments shown in Table 4 samples after treatment were supplemented with 500 µl PBS, 30 µl HCl (1 N), and 200 ng internal standard prostaglandin B1. Those samples containing intact cells were centrifuged for 10 min (870 g, room temperature). […] The eluate was diluted with 125 µl H2O and analyzed by reverse-phase HPLC as previously described ([Steinhilber et al., 1989]). […] Unless otherwise stated, 5-LO metabolites 6-trans-LTB4, 12-epi-6-trans-LTB4, LTB4, and 5-H(p)ETE were quantified.

[1] = read-out: PMNL (w/o AA) 5-HETE IC50
[2] = read-out: PMNL (w/o AA) LTB4 IC50

Row | Structure (SMILES) | IC50 [1] [nM] | IC50 [2] [nM]
1 | CCCCCCCCC=C(CCCCCCCC(=O)O)[N+](=O)[O-] [18.9.9, 9-nitro-octadec-9-enoic acid] | 2340 ± 1500 | 2580 ± 1400
2 | CCCCCCCCCCC=C(CCCCCCCC(=O)O)[N+](=O)[O-] [20.9.9, 9-nitro-eicos-9-enoic acid] | 2060 ± 1340 | 2050 ± 1250
